Experimental data from the supplement of paper PMC10307832.

Assays:
Experiment in all cases: relative viability (nuclei count vs DMSO), 5 days (fraction); higher = more cells survive
[1] = compound: CCN1C(=O)C2=CC(=C(N=C2N(C1=O)C3CC3)N)C(=O)N + CC(=O)c1c(C)c2cnc(Nc3ccc(N4CCNCC4)cn3)nc2n(C2CCCC2)c1=O [Palbociclib] (partner 0.5 µM)
Summary of the method: (§1)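 Relative viability equals treated-well nuclei counts divided by vehicle-well nuclei counts. Counts came from 4× images of lung cancer cell lines grown in 1536-well plates for 5 days after pin-tool dosing on the day after seeding. Dosing used one drug alone or a fixed anchor-drug dose plus five library-drug doses (not always all listed) in √10 steps, and values are medians of duplicate plates.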

[2] = compound: CCN1C(=O)C2=CC(=C(N=C2N(C1=O)C3CC3)N)C(=O)N + O=C(c1cc(Cc2n[nH]c(=O)c3ccccc23)ccc1F)N1CCN(C(=O)C2CC2)CC1 [Olaparib] (partner 8 µM)
Summary of the method: as §1

[3] = compound: CCN1C(=O)C2=CC(=C(N=C2N(C1=O)C3CC3)N)C(=O)N + CCNC(=O)c1noc(-c2cc(C(C)C)c(O)cc2O)c1-c1ccc(CN2CCOCC2)cc1 [Luminespib] (partner 0.01 µM)
Summary of the method: as §1

[4] = compound: CCN1C(=O)C2=CC(=C(N=C2N(C1=O)C3CC3)N)C(=O)N + NC(=O)Nc1cc(-c2cccc(F)c2)sc1C(=O)N[C@H]1CCCNC1 [AZD7762] (partner 0.2 µM)
Summary of the method: as §1

[5] = compound: CCN1C(=O)C2=CC(=C(N=C2N(C1=O)C3CC3)N)C(=O)N + C[C@]1(O)C[C@@H](c2nc(-c3ccc4ccc(-c5ccccc5)nc4c3)c3c(N)nccn32)C1 [Linsitinib] (partner 1 µM)
Summary of the method: as §1

Row | Cell Line | relative viability ([1]; first compound 0.253 µM) | relative viability ([1]; first compound 0.8 µM) | relative viability ([1]; first compound 2.53 µM) | relative viability ([1]; first compound 8 µM) | relative viability ([2]; first compound 0.253 µM) | relative viability ([2]; first compound 0.8 µM) | relative viability ([2]; first compound 2.53 µM) | relative viability ([2]; first compound 8 µM) | relative viability ([3]; first compound 0.253 µM) | relative viability ([3]; first compound 0.8 µM) | relative viability ([3]; first compound 2.53 µM) | relative viability ([3]; first compound 8 µM) | relative viability ([4]; first compound 0.253 µM) | relative viability ([4]; first compound 0.8 µM) | relative viability ([4]; first compound 2.53 µM) | relative viability ([4]; first compound 8 µM) | relative viability ([5]; first compound 0.253 µM) | relative viability ([5]; first compound 0.8 µM) | relative viability ([5]; first compound 2.53 µM) | relative viability ([5]; first compound 8 µM)
1 | HCC-15 | 0.764 | 0.731 | 0.675 | 0.712 | 0.749 | 0.774 | 0.651 | 0.725 | 0.231 | 0.7 | 0.395 | 0.452 | 1.18 | 1.45 | 1.18 | 1.31 | 0.867 | 0.908 | 0.879 | 0.913
2 | HCC-44 | 0.998 | 0.912 | 0.972 | 1 | 0.982 | 0.976 | 0.999 | 0.975 | 0.934 | 0.905 | 1.17 | 1.04 | 1.03 | 0.993 | 0.977 | 0.991 | 0.693 | 0.634 | 0.69 | 0.641
3 | HCC-827 | 0.475 | 0.45 | 0.395 | 0.517 | 0.681 | 0.679 | 0.584 | 0.699 | 0.77 | 0.588 | 0.459 | 0.866 | 0.165 | 0.193 | 0.25 | 0.207 | 0.954 | 0.97 | 0.899 | 0.979
4 | HOP-62 | 0.516 | 0.428 | 0.415 | 0.474 | 0.349 | 0.488 | 0.41 | 0.572 | 1.03 | 0.899 | 0.926 | 0.945 | 0.727 | 0.566 | 0.617 | 0.899 | 0.989 | 1.09 | 0.825 | 1.05
5 | LC-2-ad | 0.424 | 0.53 | 0.483 | 0.496 | 0.803 | 0.892 | 0.736 | 0.772 | 0.926 | 0.938 | 1.12 | 1.11 | 0.866 | 0.771 | 0.853 | 0.834 | 0.811 | 0.805 | 0.782 | 0.899
6 | LCLC-97TM1 | 0.272 | 0.244 | 0.294 | 0.181 | 0.422 | 0.397 | 0.318 | 0.419 | 0.678 | 0.845 | 0.766 | 0.799 | 0.242 | 0.155 | 0.267 | 0.175 | 0.196 | – | – | 0.218
7 | LCLC-103H | 0.446 | 0.481 | 0.479 | 0.456 | 0.739 | 0.754 | 0.74 | 0.772 | 0.916 | 0.956 | 0.958 | 1.12 | 0.76 | 0.83 | 0.768 | 0.838 | 1.13 | 1.03 | 1.07 | 1.01
8 | LK-2 | 0.705 | 0.565 | 0.683 | 0.974 | 0.641 | 0.706 | 0.575 | 0.596 | 0.181 | 0.202 | 0.175 | 0.199 | 0.516 | 0.348 | 0.359 | 0.608 | 0.575 | 0.612 | 0.655 | 0.616
9 | LOU-NH91 | 0.542 | 0.554 | 0.516 | 0.513 | 0.913 | 0.924 | 0.92 | 0.946 | 0.283 | 0.452 | 0.379 | 0.349 | 0.786 | 0.73 | 0.725 | 0.749 | 1.04 | 0.951 | 0.96 | 0.879
10 | LU99A | 0.461 | 0.448 | 0.419 | 0.409 | 0.256 | 0.285 | 0.256 | 0.275 | 0.249 | 0.259 | 0.285 | 0.234 | 0.356 | 0.377 | 0.304 | 0.348 | 0.594 | 0.578 | 0.51 | 0.626
11 | LXF-289 | 0.616 | 0.581 | 0.657 | 0.588 | 0.957 | 1.07 | 1.01 | 1.18 | 0.693 | 0.73 | 0.661 | 0.784 | 1.12 | 1.17 | 1.08 | 1.07 | 0.968 | 0.96 | 0.833 | 0.958
12 | NCI-H23 | 0.502 | 0.604 | 0.461 | 0.49 | 0.325 | 0.292 | 0.336 | 0.332 | 0.195 | 0.203 | 0.228 | 0.214 | 0.272 | 0.208 | 0.284 | 0.2 | 0.602 | 0.61 | 0.56 | 0.565
13 | NCI-H322M | 0.478 | 0.455 | 0.482 | 0.502 | 0.855 | 0.785 | 0.753 | 0.822 | 0.724 | 0.934 | 0.886 | 1 | 0.611 | 0.548 | 0.551 | 0.599 | 0.89 | 0.9 | 0.865 | 0.914
14 | NCI-H358 | 0.122 | 0.134 | 0.127 | 0.14 | 0.584 | 0.61 | 0.578 | 0.581 | 0.2 | 0.377 | 0.423 | 0.379 | 0.535 | 0.536 | 0.552 | 0.564 | 0.718 | 0.852 | 0.682 | 0.808
15 | NCI-H441 | 0.22 | 0.231 | 0.224 | 0.244 | 0.559 | 0.578 | 0.499 | 0.649 | 0.287 | 0.34 | 0.419 | 0.35 | 0.892 | 1.29 | 1.2 | 1.1 | 0.49 | 0.545 | 0.697 | 0.53
16 | NCI-H460 | 0.22 | 0.151 | 0.115 | 0.192 | 0.432 | 0.364 | 0.433 | 0.445 | 0.0334 | 0.0279 | 0.0363 | 0.037 | 0.609 | 0.572 | 0.57 | 0.586 | 0.927 | 0.806 | 0.71 | 0.71
